Entries after “also recorded” stand apart in the source; their conditions may differ.
Columns and labels:
NIH3T3-RETC634Y cells = assay: Growth of NIH3T3 cells expressing constitutively active RET Cys634Tyr; assay type: cell-based; settings: 20 nM or 30 nM for 9 days, 5% or 1% serum (FIG. 1)
Description: (§1) The indicated cell lines are allowed to plate overnight in 6-well plates (NIH3T3 cells at 5×10^4; 3T3-RETC634Y at 2×10^4). They are then grown in the presence of no PKI166, 20 nM PKI166 or 30 nM PKI166 for 9 days, with media changes every 3 days. Bars represent the X±SD of cell counts in 3 independent experiments. The first three columns show the results in NIH3T3-RetCys634Tyr in 5% serum, the next three columns show the results in NIH3T3-RetCys634Tyr in 1% serum and the last two columns the results in NIH3T3 in 5% serum (only vehicle and 30 nM PKI 166).
(§2) […] is the most common germine mutation of RET in multiple endocrine neoplasia type 2A stably expressing a constitutively active form of RET. NIH3T3-RETC634Y cells are transformed, as evidenced by growth in low serum conditions, colony formation in soft agar, and tumor formation in nude mice. […] PKI166 has no effect on growth of wild-type NIH3T3 cells grown in 5% serum (FIG. 1).

wild-type NIH3T3 cells = assay: Growth of wild-type NIH3T3 cells; assay type: cell-based; settings: 5% serum; 30 nM, 9 days (FIG. 1)
Description: as §1, §2

[1] = test system: PLCγ phosphorylation by RET/PTC; assay: Activation (phosphorylation) of PLCγ by RET/PTC in Ret-PTC3-5 cells; assay type: cell-based; settings: Ret-PTC3-5 cells, doxycycline, inhibitor for 24 h; read-out: IC50 of inhibition of PLCγ phosphorylation
Description: Ret-PTC3-5 cells are seeded at 1×10^5 cells/well in 6-well Corning plates. After 3 days, cells are treated with or without doxycycline in the presence of the selected concentration of inhibitor dissolved in solvent for 24 h. Cells are rinsed twice with cold PBS containing 0.1 mM sodium orthovanadate, and left for 20 minutes in ice-cold RIPA buffer. Cell lysates are collected by centrifugation at 4C, and pelletted at 10,000×g for 20 min. Protein assays are performed on aliquots of supernatants by the Coomassie Blue assay (Pierce, Rockford, Ill.). 650 μg of protein are incubated with anti-PLC γ antibody (SantaCruz) or normal IgG overnight. The immune complexes are precipitated with proteinAG agarose (Santa Cruz) previously washed with RIPA buffer as described. After three washes with RIPA buffer, precipitates are eluted into 30 μl sample buffer, heated 10 min at 95 C, and ran on SDS-PAGE gel for Western blot analysis. Blots are initially probed with anti-phosphotyrosine. Loading is normalized by probing with anti-PLC γ antibody (SantaCruz).
It was shown before that upon activation, RET associates with and phosphorylates PLCγ. To further explore the effects of PKI166 on RET kinase activity, the impact of pretreatment with the compound on PLCγ phosphorylation is examined. When grown in the absence of doxycycline, there is no detectable PLCγ phosphorylation. […]

RET/PTC3 = molecular target: T1, RET/PTC3 (Homo sapiens, UniProt P07949); assay: RET/PTC autophosphorylation, in vitro immunokinase assay of RET-IP extracts from RET/PTC3-5 cells; assay type: biochemical; settings: RET-IP extracts from RET/PTC3-5 cells treated with doxycycline for 48 h
T1 construct: expressed in transfected cells; host or cells: PCCL3 thyroid cell line (clone RET/PTC3-5), doxycycline-inducible expression
T1 sequence (P07949 with tags, fused parts or gaps): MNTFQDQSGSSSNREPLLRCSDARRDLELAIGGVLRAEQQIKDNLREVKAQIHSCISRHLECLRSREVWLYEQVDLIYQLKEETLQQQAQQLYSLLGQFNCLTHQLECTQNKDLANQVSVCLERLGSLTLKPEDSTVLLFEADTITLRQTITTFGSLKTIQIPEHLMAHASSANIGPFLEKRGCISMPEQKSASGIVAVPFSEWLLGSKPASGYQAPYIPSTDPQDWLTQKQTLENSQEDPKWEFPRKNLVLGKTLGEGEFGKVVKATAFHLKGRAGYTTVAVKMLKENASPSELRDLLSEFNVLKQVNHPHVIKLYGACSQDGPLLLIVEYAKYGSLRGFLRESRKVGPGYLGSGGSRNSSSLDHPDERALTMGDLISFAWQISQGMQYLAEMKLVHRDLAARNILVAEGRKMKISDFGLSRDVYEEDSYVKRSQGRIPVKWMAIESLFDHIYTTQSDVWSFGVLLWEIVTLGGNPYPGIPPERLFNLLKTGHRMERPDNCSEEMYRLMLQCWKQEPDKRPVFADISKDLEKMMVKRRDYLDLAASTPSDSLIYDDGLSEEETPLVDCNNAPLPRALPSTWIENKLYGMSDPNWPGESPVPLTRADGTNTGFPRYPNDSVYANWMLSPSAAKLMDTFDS
Excerpt: In order to explore the activity of a compound which decreases the activity of the EGF on RET kinase, for example, a well-differentiated clonal thyroid cell line, PCCL3, conditionally expressing either RET/PTC3 or RET/PTC1 in a tetracyclin (doxycyclin)-dependent manner as described below can be used. The activation of expression of RET/PTC1 or 3 results in dimerization, autophosphorylation, and association with a number of signaling intermediates including Shc and PLCγ. […]
Confluent T-75 flasks are washed with ice cold PBS containing 0.2 mM sodium ortho-vanadate, Cells are then lysed with cold RIPA buffer 1.8 ml (20 mM Tris, pH 7.4, 150 mM NaCl, 1% Nonidet P-40, 1% Tween 20, 20 mM sodium fluoride, 1 mM sodium ortho-vanadate, 1 mM EGTA, […], 0.2 mM PMSF, with Sigma Protease inhibitor mix) with constant agitation at 4 C for 20 min. […] Proteins are subjected to SDS-PAGE gel (7.5%), their phosphorylation measured by Phosphorimager densitometry (Molecular Dynamics, Sunnyvale, Calif.) after transfer to nitrocellulose membranes. Phosphorylation is then normalized to total RET protein in the IP determined by Western analysis using goat polyclonal anti-RET antibody (SantaCruz). […]

EGF-R = molecular target: T2, EGF-R (Homo sapiens, UniProt P00533); assay: EGF-R autophosphorylation, immunokinase assay of A431 cells; assay type: biochemical
T2 construct: The human squamous-cell carcinoma cell line A431 stably overexpressing the EGF-R; endogenous in cells; host or cells: A431 human squamous-cell carcinoma cells
T2 sequence (P00533 25-1210): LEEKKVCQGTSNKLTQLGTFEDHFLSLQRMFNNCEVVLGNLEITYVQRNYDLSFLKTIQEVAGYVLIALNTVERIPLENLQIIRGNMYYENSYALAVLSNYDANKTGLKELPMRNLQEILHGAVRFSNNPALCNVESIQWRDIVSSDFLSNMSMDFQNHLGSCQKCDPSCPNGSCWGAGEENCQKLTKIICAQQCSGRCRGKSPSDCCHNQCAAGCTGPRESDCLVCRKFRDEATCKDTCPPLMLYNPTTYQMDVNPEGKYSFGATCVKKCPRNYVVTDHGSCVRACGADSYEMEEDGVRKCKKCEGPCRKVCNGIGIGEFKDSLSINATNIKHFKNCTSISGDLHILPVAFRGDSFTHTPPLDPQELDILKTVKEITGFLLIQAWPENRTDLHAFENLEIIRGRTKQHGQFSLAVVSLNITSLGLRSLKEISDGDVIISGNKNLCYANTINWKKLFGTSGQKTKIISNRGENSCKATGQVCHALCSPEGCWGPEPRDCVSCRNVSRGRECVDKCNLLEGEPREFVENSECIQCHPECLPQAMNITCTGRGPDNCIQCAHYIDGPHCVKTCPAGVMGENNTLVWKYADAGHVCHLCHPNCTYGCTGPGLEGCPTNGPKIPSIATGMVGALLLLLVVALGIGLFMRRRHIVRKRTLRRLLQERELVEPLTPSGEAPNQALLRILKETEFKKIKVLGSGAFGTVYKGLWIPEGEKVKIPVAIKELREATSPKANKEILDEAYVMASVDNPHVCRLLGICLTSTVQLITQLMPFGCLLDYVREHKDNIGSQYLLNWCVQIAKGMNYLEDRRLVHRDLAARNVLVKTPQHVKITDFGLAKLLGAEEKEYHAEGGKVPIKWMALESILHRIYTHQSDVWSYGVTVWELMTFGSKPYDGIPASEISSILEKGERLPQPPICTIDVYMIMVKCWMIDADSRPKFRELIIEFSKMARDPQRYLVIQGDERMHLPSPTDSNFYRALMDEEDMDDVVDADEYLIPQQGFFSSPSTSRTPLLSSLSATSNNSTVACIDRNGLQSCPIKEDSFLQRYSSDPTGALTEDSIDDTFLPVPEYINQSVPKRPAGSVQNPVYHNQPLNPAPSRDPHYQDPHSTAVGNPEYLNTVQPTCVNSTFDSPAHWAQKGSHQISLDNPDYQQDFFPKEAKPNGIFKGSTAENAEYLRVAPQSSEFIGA

insulin receptor = molecular target: T3, insulin receptor (Homo sapiens, UniProt P06213); assay: Insulin receptor autophosphorylation, immunokinase assay of CHO-wt-IR cells; assay type: biochemical
T3 construct: expressed in transfected cells; host or cells: CHO-wt IR cells
T3 sequence (P06213 28-1382, species assumed): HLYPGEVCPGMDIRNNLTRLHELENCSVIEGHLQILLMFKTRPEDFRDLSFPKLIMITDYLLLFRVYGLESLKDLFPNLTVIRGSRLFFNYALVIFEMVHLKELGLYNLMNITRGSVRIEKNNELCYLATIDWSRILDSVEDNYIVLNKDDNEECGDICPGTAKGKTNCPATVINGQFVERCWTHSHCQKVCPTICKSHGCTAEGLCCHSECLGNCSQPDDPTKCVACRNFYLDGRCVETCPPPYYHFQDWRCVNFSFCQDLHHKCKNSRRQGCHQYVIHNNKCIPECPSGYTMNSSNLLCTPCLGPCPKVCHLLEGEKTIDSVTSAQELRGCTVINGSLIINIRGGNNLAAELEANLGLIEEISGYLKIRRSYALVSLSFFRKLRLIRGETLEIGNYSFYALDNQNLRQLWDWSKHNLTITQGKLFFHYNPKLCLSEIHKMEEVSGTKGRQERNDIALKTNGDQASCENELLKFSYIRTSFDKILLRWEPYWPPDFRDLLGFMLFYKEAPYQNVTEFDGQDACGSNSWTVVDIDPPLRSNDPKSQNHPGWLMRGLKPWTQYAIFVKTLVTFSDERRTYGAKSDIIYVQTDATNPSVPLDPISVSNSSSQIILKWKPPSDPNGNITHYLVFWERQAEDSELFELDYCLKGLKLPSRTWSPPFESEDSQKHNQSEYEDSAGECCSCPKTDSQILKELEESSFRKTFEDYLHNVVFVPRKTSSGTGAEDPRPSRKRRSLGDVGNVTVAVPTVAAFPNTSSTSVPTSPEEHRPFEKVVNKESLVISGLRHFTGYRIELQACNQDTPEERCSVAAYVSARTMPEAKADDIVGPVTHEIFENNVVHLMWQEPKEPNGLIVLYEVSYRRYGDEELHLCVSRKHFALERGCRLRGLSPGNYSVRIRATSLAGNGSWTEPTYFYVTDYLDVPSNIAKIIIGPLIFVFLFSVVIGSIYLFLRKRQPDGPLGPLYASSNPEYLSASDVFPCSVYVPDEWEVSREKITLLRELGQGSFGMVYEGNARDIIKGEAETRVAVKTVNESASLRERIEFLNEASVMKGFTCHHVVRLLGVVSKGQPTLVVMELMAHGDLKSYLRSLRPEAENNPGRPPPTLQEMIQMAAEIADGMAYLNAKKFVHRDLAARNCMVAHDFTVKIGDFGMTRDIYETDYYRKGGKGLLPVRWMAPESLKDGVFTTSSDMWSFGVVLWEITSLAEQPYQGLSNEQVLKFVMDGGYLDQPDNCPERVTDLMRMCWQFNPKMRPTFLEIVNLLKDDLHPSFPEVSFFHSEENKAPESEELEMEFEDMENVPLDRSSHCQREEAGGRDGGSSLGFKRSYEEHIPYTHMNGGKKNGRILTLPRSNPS

IC50 [1]: ~4 nM | IC50 (RET/PTC3): ~17.7 nM | IC50 (EGF-R): 8 nM | effect on insulin receptor autophosphorylation (insulin receptor): no effects
Compound: C[C@@H](Nc1ncnc2[nH]c(-c3ccc(O)cc3)cc12)c1ccccc1 [PKI166, (R)-6-(4-hydroxy-phenyl)-4-[(1-phenyl-ethyl)-amino]-7H-pyrrolo[2,3-d]-pyrimidine]
inhibition of cell growth of RET-transformed fibroblasts (NIH3T3-RETC634Y cells): inhibits the growth; also recorded: powerful, concentration dependent inhibition of cell growth | effect on growth of wild-type NIH3T3 cells (wild-type NIH3T3 cells): no effect
